Laboratory results reported in US9302999B2, “Substituted triazoles as herbicides” (E. I. DU PONT DE NEMOURS AND COMPANY, priority 2012, dated 2016).

Key:
Format in all cases: in vivo
[1] = system: poinsettia, wild (wild poinsettia, Euphorbia heterophylla); assay: Test E pre-/postemergence: poinsettia, wild; settings: Preemergence, scale 0 to 100
Excerpt: (§1) Seeds of plant species selected from corn (Zea mays), soybean (Glycine max), velvetleaf (Abutilon theophrasti), lambsquarters (Chenopodium album), poinsettia, wild (wild poinsettia, Euphorbia heterophylla), pigweed, palmer (palmer pigweed, Amaranthus palmeri), waterhemp (common waterhemp, Amaranthus rudis), smartweed (ladysthumb smartweed, Polygonum persicaria), surinam grass (Brachiaria decumbens), crabgrass, large (large crabgrass, Digitaria sanguinalis), crabgrass, Brazil (Brazilian crabgrass, Digitaria horizontalis), panicum, fall (fall panicum, Panicum dichotomiflorum), foxtail, giant (giant foxtail, Setaria faberii), foxtail, green (green foxtail, Setaria viridis), goosegrass (Eleusine indica), johnsongrass (Sorghum halepense), ragweed (common ragweed, Ambrosia elation), barnyardgrass (Echinochloa crus-galli), sandbur (southern sandbur, Cenchrus echinatus), arrowleaf sida (Sida rhombifolia), ryegrass, Italian (Italian ryegrass, Lolium multiflorum), dayflower, (VA) (Virginia dayflower, Commelina virginica), field bindweed (Convolvulus arvensis), cocklebur (common cocklebur, Xanthium strumarium), morningglory (Ipomoea coccinea), nightshade (eastern black nightshade, Solanum ptycanthum), kochia (Kochia scoparia), nutsedge, yellow (yellow nutsedge, Cyperus esculentus) and beggarticks (hairy beggarticks, Bidens pilosa) were planted into a silt loam soil and treated preemergence with test chemicals formulated in a non-phytotoxic solvent mixture which included a surfactant. At the same time, plants selected from these crop and weed species were planted in pots containing a growing medium comprising spaghnum peat moss, vermiculite, wetting agent and starter nutrients and treated with postemergence applications of some of the test chemicals formulated in the same manner. Plants ranged in height from 2 to 18 cm for postemergence treatments (1- to 4-leaf stage).
(§2) Treated plants and controls were maintained in a greenhouse for 14 to 21 days, after which time all species were compared to controls and visually evaluated. Plant response ratings, summarized in Table E, are based on a scale of 0 to 100 where 0 is no effect and 100 is complete control. A dash (-) response means no test result.

[2] = system: sandbur (southern sandbur, Cenchrus echinatus); assay: Test E pre-/postemergence: sandbur; settings: Preemergence, scale 0 to 100
Excerpt: as §1, §2

[3] = system: nutsedge, yellow (yellow nutsedge, Cyperus esculentus); assay: Test E pre-/postemergence: nutsedge, yellow; settings: Preemergence, scale 0 to 100
Excerpt: as §1, §2

[4] = system: crabgrass, Brazil (Brazilian crabgrass, Digitaria horizontalis); assay: Test F pre-/postemergence: crabgrass, Brazil; settings: Preemergence
Excerpt: (§3) Seeds of plant species selected from corn (Zea mays), soybean (Glycine max), velvetleaf (Abutilon theophrasti), lambsquarters (Chenopodium album), poinsettia, wild (wild poinsettia, Euphorbia heterophylla), pigweed, palmer (palmer pigweed, Amaranthus palmeri), waterhemp (common waterhemp, Amaranthus rudis), surinam grass (Brachiaria decumbens), crabgrass, Brazil (Brazilian crabgrass, Digitaria horizontalis), panicum, fall (fall panicum Panicum dichotomiflorum), crabgrass, large (large crabgrass, Digitaria sanguinalis), foxtail, giant (giant foxtail, Setaria faberii), foxtail, green (green foxtail Setaria viridis), goosegrass (Eleusine indica), ragweed (common ragweed, Ambrosia elatior), barnyardgrass (Echinochloa crus-galli), sandbur (southern sandbur, Cenchrus echinatus), arrowleaf sida (Sida rhombifolia), ryegrass, Italian (Italian ryegrass, Lolium multiflorum), dayflower, VA (Virginia (VA) dayflower, Commelina virginica), field bindweed (Convolvulus arvensis), cocklebur (common cocklebur, Xanthium strumarium), morningglory (Ipomoea coccinea), nightshade (eastern black nightshade, Solanum ptycanthum), kochia (Kochia scoparia), nutsedge, yellow (yellow nutsedge, Cyperus esculentus), johnsongrass (Sorghum halepense), smartweed (ladysthumb smartweed, Polygonum persicaria), and beggarticks (hairy beggarticks, Bidens pilosa), were planted into a silt loam soil and treated preemergence with test chemicals formulated in a non-phytotoxic solvent mixture which included a surfactant. At the same time, plants selected from these crop and weed species and also pigweed (Amaranthus retroflexus), waterhemp_RES1 (ALS/Triazine resistant common waterhemp, Amaranthus rudis) and waterhemp_RES2 (ALS/HPPD resistant common waterhemp, Amaranthus rudis) were planted in pots containing a planting medium comprising spaghnum peat moss, vermiculite, wetting agent and starter nutrients treated with postemergence applications of some of the test chemicals formulated in the same manner. Plants ranged in height from 2 to 18 cm for postemergence treatments (1- to 4-leaf stage).
as §2

[5] = system: arrowleaf sida (Sida rhombifolia); assay: Test F pre-/postemergence: arrowleaf sida; settings: Preemergence
Excerpt: as §3, §2

Waterhemp = assay: Test C pre-/postemergence: waterhemp
Excerpt: Seeds of plant species selected from blackgrass (Alopecurus myosuroides), bromegrass, downy (downy bromegrass, Bromus tectorum), foxtail, green (green foxtail, Setaria viridis), ryegrass, Italian (Italian ryegrass, Lolium multiflorum), winter wheat (Triticum aestivum), wild oat (Avena fatua), galium (catchweed bedstraw, Galium aparine), bermudagrass (Cynodon dactylon), surinam grass (Brachiaria decumbens), cocklebur (common cocklebur, Xanthium strumarium), corn (Zea mays), large crabgrass (Digitaria sanguinalis), woolly cupgrass (Eriochloa villosa), foxtail, giant (giant foxtail, Setaria faberii), goosegrass (Eleusine indica), johnsongrass (Sorghum halepense), kochia (Kochia scoparia), lambsquarters (Chenopodium album), morningglory (Ipomoea coccinea), nightshade (eastern black nightshade, Solanum ptycanthum), nutsedge, yellow (yellow nutsedge, Cyperus esculentus), pigweed (Amaranthus retroflexus), ragweed (common ragweed, Ambrosia elation), soybean (Glycine max), common (oilseed) sunflower (Helianthus annuus), Russian thistle (Salsola kali) and velvetleaf (Abutilon theophrasti) were planted into a blend of loam soil and sand and treated preemergence with test chemicals formulated in a non-phytotoxic solvent mixture which included a surfactant.
At the same time, plants selected from these crop and weed species and also barley (winter barley, Hordeum vulgare), canarygrass (Phalaris minor), chickweed (common chickweed, Stellaria media) windgrass (Apera spica-venti) and deadnettle (henbit deadnettle, Lamium amplexicaule) were planted in pots containing Redi-Earth® planting medium (Scotts Company, 14111 Scottslawn Road, Marysville, Ohio 43041) comprising spaghnum peat moss, vermiculite, wetting agent and starter nutrients and treated with postemergence applications of test chemicals formulated in the same manner. Plants ranged in height from 2 to 18 cm (1- to 4-leaf stage) for postemergence treatments.
as §2, with “13” for “14”, “15” for “21”, “C,” for “E,”

[6] = 16 g ai/ha, scale 0 to 100 (0 no effect, 100 complete control)
[7] = 31 g ai/ha, scale 0 to 100 (0 no effect, 100 complete control)

SMILES | Plant response rating: Poinsettia, Wild ([1]; 8 g ai/ha) | Plant response rating: Poinsettia, Wild ([1]; 16 g ai/ha) | Plant response rating: Poinsettia, Wild ([1]; 31 g ai/ha) | Plant response rating: Poinsettia, Wild ([1]; 62 g ai/ha) | Plant response rating: Poinsettia, Wild ([1]; 125 g ai/ha) | Plant response rating: Sandbur ([2]; 8 g ai/ha) | Plant response rating: Sandbur ([2]; 16 g ai/ha) | Plant response rating: Sandbur ([2]; 31 g ai/ha) | Plant response rating: Sandbur ([2]; 62 g ai/ha) | Plant response rating: Sandbur ([2]; 125 g ai/ha) | Plant response rating: Nutsedge, Yellow ([3]; 8 g ai/ha) | Plant response rating: Nutsedge, Yellow ([3]; 16 g ai/ha) | Plant response rating: Nutsedge, Yellow ([3]; 31 g ai/ha) | Plant response rating: Nutsedge, Yellow ([3]; 62 g ai/ha) | Plant response rating: Nutsedge, Yellow ([3]; 125 g ai/ha) | further results
Cc1nn(-c2ccc(F)cc2)nc1Oc1ccnc(C(F)(F)F)c1 [Compound 129, 4-[[2-(4-fluorophenyl)-5-methyl-2H-1,2,3-triazol-4-yl]oxy]-2-(trifluoromethyl)pyridine] | 0 | 0 | 0 | 0 | 25 | 0 | 0 | 20 | 20 | 50 | 0 | 0 | 0 | 0 | 20 | –
CCCc1nn(-c2ccc(F)cc2)nc1Cc1ccnc(C(F)(F)F)c1 [Compound 153] | – | – | – | – | – | – | – | – | – | – | – | – | – | – | – | Plant response rating, Crabgrass, Brazil [4, 6]: 98; Plant response rating, Crabgrass, Brazil [4, 7]: 100; Plant response rating, Crabgrass, Brazil ([4]; 62 g ai/ha, scale 0 to 100): 100; Plant response rating, Crabgrass, Brazil ([4]; 125 g ai/ha, scale 0 to 100): 100; Plant response rating, Crabgrass, Brazil ([4]; 250 g ai/ha, scale 0 to 100): 100; Plant response rating, Arrowleaf Sida [5, 6]: 5; Plant response rating, Arrowleaf Sida [5, 7]: 5; Plant response rating, Arrowleaf Sida ([5]; 62 g ai/ha, scale 0 to 100): 25; Plant response rating, Arrowleaf Sida ([5]; 125 g ai/ha, scale 0 to 100): 25; Plant response rating, Arrowleaf Sida ([5]; 250 g ai/ha, scale 0 to 100): 65; Plant response rating, Waterhemp (Waterhemp; Preemergence, 250 g ai/ha, scale 0 to 100, 0 no effect, 100 complete control): 100
Cc1nn(-c2ccc(F)cc2)nc1Cc1ccnc(C(F)(F)F)c1 [Compound 16, 4-[[2-(4-fluorophenyl)-5-methyl-2H-1,2,3-triazol-4-yl]methyl]-2-(trifluoromethyl)pyridine] | 0 | 0 | 20 | 40 | 98 | 0 | 0 | 10 | 50 | 60 | 0 | 0 | 0 | 20 | 20 | –
CCCc1nn(-c2ccc(C(F)(F)F)c(F)c2)nc1Oc1ccnc(C(F)(F)F)c1 [Compound 185] | – | – | – | – | – | – | – | – | – | – | – | – | – | – | – | Plant response rating, Waterhemp (Waterhemp; Postemergence, 31 g ai/ha, scale 0 to 100 (0 no effect, 100 complete control)): 90
